The results in this text go back to the supplement of paper PMC11562712.

This data set is described as follows: first-order primary biodegradation rate constant k (sorption-corrected, fDis-corrected) (d-1); higher = faster biodegradation. An outline of the steps:
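River water and sieved sediment (50 g wet solid L^–1) from segments in Germany, Switzerland, Spain and Greece were spiked with 129 compounds at 1 μg L^–1 each and shaken in the dark at river water temperature (20.5 ± 3.5 °C) for 10 days, in three replicates. After filtration, water-phase subsamples were analysed by Orbitrap tandem mass spectrometry following ultra-high-performance liquid chromatography. First-order k was taken from log peak-area regression, corrected using azide-sterilised sorption controls and divided by the dissolved fraction, excluding invalid fits.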

[1] abbreviates: river segment: Greece (EL) A_Contam, incubation temperature 19 °C.
The mark [2] stands for this setting: river segment: Greece (EL) L_Contam, incubation temperature 19 °C.
Setting [3] is: river segment: Spain (ES) B_Contam, incubation temperature 24 °C.
[4] abbreviates: river segment: Spain (ES) L_Contam, incubation temperature 24 °C.
Setting [5] is: river segment: Switzerland (CH) C_Contam, incubation temperature 17 °C.
Where [6] appears, read: river segment: Switzerland (CH) U_Contam, incubation temperature 17 °C.
The mark [7] stands for this setting: river segment: Germany (DE) H_Contam, incubation temperature 24 °C.
The mark [8] stands for this setting: river segment: Germany (DE) T_Contam, incubation temperature 24 °C.
Setting [9] is: river segment: Germany (DE) T_Pris, incubation temperature 24 °C.
The mark [10] stands for this setting: river segment: Greece (EL) G_Pris, incubation temperature 19 °C.
The mark [11] stands for this setting: river segment: Spain (ES) C_Contam, incubation temperature 24 °C.
[12] abbreviates: river segment: Spain (ES) F_Pris_Salt, incubation temperature 24 °C.
The mark [13] stands for this setting: river segment: Switzerland (CH) R_Contam, incubation temperature 17 °C.
The mark [14] stands for this setting: river segment: Switzerland (CH) U_Pris, incubation temperature 17 °C.

For `COc1ccc(C(CN(C)C)C2(O)CCCCC2)cc1` (stereo not given) [Venlafaxine], the “first-order primary biodegradation rate constant k” value reads like this: under setting [1], 1.22; (river segment: Greece (EL) G_Contam, incubation temperature 19 °C) 0.204; under setting [2], 1.2; under setting [3], 0.0466; under setting [4], 0.0394; under setting [5], 0.00206. Moreover, under setting [6], the “first-order primary biodegradation rate constant k” value was found to be 0.0953.
On to `Cc1ccc(-c2nc3ccc(C)cn3c2CC(=O)N(C)C)cc1` [Zolpidem], for which the “first-order primary biodegradation rate constant k” value reads like this: under setting [7], 0.202; under setting [8], 0.672; under setting [9], 0.0723; under setting [1], 0.464; under setting [10], 0.19; under setting [2], 2.27. In addition, the “first-order primary biodegradation rate constant k” value under setting [3] amounted to 0.709; the “first-order primary biodegradation rate constant k” value under setting [11] came to 0.0357; the “first-order primary biodegradation rate constant k” value under setting [12] stood at 0.00549; the “first-order primary biodegradation rate constant k” value under setting [4] amounted to 0.761; the “first-order primary biodegradation rate constant k” value under setting [5] was found to be 0.0346; the “first-order primary biodegradation rate constant k” value under setting [13] came out at 0.0249. Also, the “first-order primary biodegradation rate constant k” value reads like this: under setting [6], 0.0604; under setting [14], 0.135.
As for `Cc1ccc(S(=O)(=O)O)cc1` [p-Toluenesulfonic acid], the “first-order primary biodegradation rate constant k” value under setting [7] stood at 1.06; the “first-order primary biodegradation rate constant k” value under setting [8] was found to be 0.52; the “first-order primary biodegradation rate constant k” value under setting [9] was found to be 0.422; the “first-order primary biodegradation rate constant k” value under setting [1] is 0.369; the “first-order primary biodegradation rate constant k” value under setting [10] came out at 0.0811; the “first-order primary biodegradation rate constant k” value under setting [2] turned out to be 0.27. Further, the “first-order primary biodegradation rate constant k” value is 0.18 under setting [3]; 0.543 under setting [11]; 0.0548 under setting [12]; 0.55 under setting [4]; 0.764 under setting [5]; 0.292 under setting [13]. Besides, the “first-order primary biodegradation rate constant k” value runs as follows: under setting [6], 0.186; under setting [14], 0.12.
